Experimental data published in patent US8637468B2, “Synthetic cholesterylamine-linker derivatives for agent delivery into cells” (The University of Kansas, priority 2009, dated 2014).
Like-named read-outs stand apart in the source and are kept apart here.

What was measured:
[1] = tested on: plasma membranes of living Jurkat lymphocytes; assay: Saturation binding of fluorescent probes to living Jurkat lymphocytes (flow cytometry); set-up: species or system human; conditions: for Bmax (×10^5, 16° C.) / Kd / Bmax (×10^5, 37° C.): media containing 10% FBS, free cholesterol (200 μM, 10% DMSO) as competitor; for binding to mammalian cells (affinity/efficacy, in words): high concentrations of serum (10%)
Procedure: Jurkat lymphocytes (human acute leukemia, ATCC #TIB-152) were cultivated in Roswell Park Memorial Institute (RPMI) 1640 medium supplemented with Fetal Bovine Serum (FBS, 10%), penicillin (100 units/mL), and streptomycin (100 μg/mL) in a humidified 5% CO2 incubator at 37° C. Media used for cell culture and all wash steps contained antibiotics and 10% FBS unless otherwise noted.
(§1) Cells were suspended at 300,000 cells/mL in RPMI media containing 10% FBS. Ezetimibe (100 μM; diluted 1:1000 into media from a 100 mM stock in DMSO; 0.1% final DMSO concentration), free cholesterol (200 μM; diluted 1:10 into media from a 2 mM stock in DMSO; 10% final DMSO concentration to enhance cholesterol solubility) or vehicle control (DMSO) was added in competition experiments. Cell suspensions containing the competitor or vehicle control were prepared as 1 mL aliquots in 1.5 mL eppindorf tubes. Fluorescent probes were added at concentrations from 0 nM to 2500 nM (diluted 1:1000 into media from stocks in DMSO). Once the probe was added and well mixed, the samples were split into three tubes each containing 330 μL. Cells were incubated at 16° C. for 10 min or 37° C. for 5 minutes to limit endocytosis. After this incubation, the samples were washed once with RPMI 1640 containing 0.5% FBS (to minimize efflux of the probe from the cell surface) and propidium iodide (3 μM). Samples were immediately analyzed by flow cytometry or confocal laser-scanning microscopy.
Populations of 10,000 Jurkat cells were analyzed for each sample using an Accuri C6 flow cytometer equipped with 488 nm and 640 nm solid-state lasers. Live cells were gated using both forward scattering (FSC) and side scattering (SSC) dot plots to identify cellular physical properties of size and granularity and propidium iodide to identify cells with compromised membranes. The average cellular fluorescence upon excitation at 488 nm was plotted against probe concentration, and the data analyzed as total binding (no competitor added) and a linear non-specific binding component (with cholesterol or ezetimibe as a specific competitor) to calculate specific binding curves. Using GraphPad Prism 5.0 software, these curves were analyzed with a one site with hill slope binding model to determine the relative apparent Kd and Bmax values listed in Table 1 below.
Using free cholesterol (compound 1, 200 μM, 10% DMSO) as a competitor, we quantified the relative affinities (Kd, app) and efficacies (Bmax) of compounds 4-12 in saturation binding experiments at both 16° C. (to limit endocytosis) and 37° C. (FIG. 4 and Table 1). These experiments confirmed the combined importance the N-alkyl substituent of cholesterylamine, an anionic functional group, and a spacer residue such as β-alanine to engender high affinity binding to cell surfaces and facilitate subsequent endocytosis.

Jurkat lymphocytes = assay: Confocal laser scanning microscopy of living Jurkat lymphocytes treated with fluorescent probes; format: cell-based, human; conditions: 2 μM, 10% serum
Procedure: FIG. 3 includes micrographs showing differential interference contrast (DIC) and confocal laser scanning microscopy of living Jurkat lymphocytes in media containing 10% serum treated at 37° C. with fluorescent compound 4 (Panels A-E), compound 6 (F-G), and compound 12 (H-I) for 5 min or 1 h (2 μM). In C and D, ezetimibe (compound 3, 100 μM in 0.1% DMSO) and cholesterol (compound 1, 200 μM in 10% DMSO) were included as competitors to block uptake via cell surface receptors.
An inverted Leica TCS SPE confocal laser-scanning microscope fitted with a Leica 63× oil-immersion objective was employed for imaging. Fluorescent probes were excited with a 488 nm solid-state laser and emitted photons were collected from 495-600 nm. Propidium iodide, used to counterstain dead cells red fluorescent, was excited with a 532 nm solid-state laser and emitted photons were collected from 650-800 nm. To image living cells, 50 μL of cells in media was pipetted to form a small droplet in the center of a coverslip fitted with a press-to-seal silicone isolator (Invitrogen). A microscope slide was added to the top of the coverslip to create a column of media containing living cells. To allow accurate comparisons of differences in cellular fluorescence, laser power and PMT gain settings were identical for all samples.
as §1, with “Once the probe was added and well mixed, the samples were split into three tubes each containing 330 μL. Cells were incubated at 16° C. for 10 min or 37° C. for 5 minutes to limit endocytosis. After this incubation, the samples were washed once with RPMI 1640 containing 0.5% FBS (to minimize efflux of the probe from the cell surface) and propidium iodide (3 μM).” left out

[2] = 16° C., 10 min, read-out: Kd, app (nM, 16° C.)
[3] = 37° C., 5 min, read-out: Kd, app (nM, 37° C.)

| SMILES | Bmax (×10^5, 16° C.) ([1]; 16° C., 10 min) | Kd [1, 2] | Bmax (×10^5, 37° C.) ([1]; 37° C., 5 min) | Kd [1, 3] | binding to mammalian cells (affinity/efficacy, in words) [1] | fluorescent staining of cells (Jurkat lymphocytes; 5 minutes at 37° C.) | cellular binding, uptake and localization (Jurkat lymphocytes; after 1 hour, 37° C.) | melting point | cellular binding and cellular uptake compared with compound 4 (Jurkat lymphocytes; 5 min or 1 h, 37° C.) |
| --- | --- | --- | --- | --- | --- | --- | --- | --- | --- |
| Cc1cc(C(=O)N[C@@H](CCC(=O)O)C(=O)NCCC(=O)NCCCN[C@H]2CC[C@@]3(C)C(=CC[C@H]4[C@@H]5CC[C@H]([C@H](C)CCCC(C)C)[C@@]5(C)CC[C@@H]43)C2)ccc1-c1c2cc(F)c(=O)cc-2oc2cc(O)c(F)cc12 [compound 4, (4S)-5-{[3-({3-[3β-Cholest-5-en-3-ylamino]propyl}amino)-3-oxopropyl]amino}-4-{[4-(2,7-difluoro-6-hydroxy-3-oxo-3H-xanthen-9-yl)-3-methylbenzoyl]amino}-5-oxopentanoic acid] | 2.31 ± 0.14 ×10^5 | 403 ± 49 nM | 2.54 ± 0.12 ×10^5 | 344 ± 32 nM | high affinity/efficacy | robust fluorescent staining of cellular plasma membranes | enhanced cellular binding, uptake of the probe, and localization of compound 4 in transferrin-positive early/recycling endosomes |  |  |
| Cc1cc(C(=O)N[C@@H](CCC(=O)O)C(=O)N[C@@H](CCC(=O)O)C(=O)NCCC(=O)NCCCN[C@H]2CC[C@@]3(C)C(=CC[C@H]4[C@@H]5CC[C@H]([C@H](C)CCCC(C)C)[C@@]5(C)CC[C@@H]43)C2)ccc1-c1c2cc(F)c(=O)cc-2oc2cc(O)c(F)cc12 [compound 5, (4S)-5-{[(1S)-3-Carboxy-1-({[3-({3-[3β-cholest-5-en-3-ylamino]propyl}amino)-3-oxopropyl]amino}carbonyl)propyl]amino}-4-{[4-(2,7-difluoro-6-hydroxy-3-oxo-3H-xanthen-9-yl)-3-methylbenzoyl]amino}-5-oxopentanoic acid] | 3.93 ± 0.64 ×10^5 | 767 ± 244 nM | 3.01 ± 0.26 ×10^5 | 449 ± 74 nM | high affinity/efficacy |  |  |  |  |
| Cc1cc(C(=O)NCC(=O)NCCC(=O)NCCCN[C@H]2CC[C@@]3(C)C(=CC[C@H]4[C@@H]5CC[C@H]([C@H](C)CCCC(C)C)[C@@]5(C)CC[C@@H]43)C2)ccc1-c1c2cc(F)c(=O)cc-2oc2cc(O)c(F)cc12 [compound 6, N-(2-{[3-({3-[3β-Cholest-5-en-3-ylamino]propyl}amino)-3-oxopropyl]amino}-2-oxoethyl)-4-(2,7-difluoro-6-hydroxy-3-oxo-3H-xanthen-9-yl)-3-methylbenzamide] |  |  | NC^b (Not calculated due to low efficacy (Bmax<0.4×105)) |  |  |  |  | 200 to 203 °C |  |
| Cc1cc(C(=O)N[C@@H](CCC(=O)O)C(=O)N[C@@H](CCC(=O)O)C(=O)NCCCN[C@H]2CC[C@@]3(C)C(=CC[C@H]4[C@@H]5CC[C@H]([C@H](C)CCCC(C)C)[C@@]5(C)CC[C@@H]43)C2)ccc1-c1c2cc(F)c(=O)cc-2oc2cc(O)c(F)cc12 [compound 7, (4S)-5-(((2S)-4-carboxy-1-((3-[3β-cholest-5-en-3-ylamino]propyl)amino)-1-oxobutan-2-yl)amino)-4-(4-(2,7-difluoro-6-hydroxy-3-oxo-3H-xanthen-9-yl)-3-methylbenzamido)-5-oxopentanoic acid] |  |  | 3.2 ± 1.3 ×10^5 | 1540 ± 1140 nM |  |  |  | 175 to 178 °C |  |
| CC[C@H](CC[C@@H](C)[C@H]1CC[C@H]2[C@@H]3CC=C4C[C@@H](NCCCNC(=O)CCNC(=O)[C@H](CCC(=O)O)NC(=O)c5ccc(-c6c7cc(F)c(=O)cc-7oc7cc(O)c(F)cc67)c(C)c5)CC[C@]4(C)[C@H]3CC[C@]12C)C(C)C [compound 8, (4S)-5-{[3-({3-[3β-Sitost-5-en-3-ylamino]propyl}amino)-3-oxopropyl]amino}-4-{[4-(2,7-difluoro-6-hydroxy-3-oxo-3H-xanthen-9-yl)-3-methylbenzoyl]amino}-5-oxopentanoic acid] | 0.73 ± 0.03 ×10^5 | 286 ± 27 nM | 1.3 ± 0.29 ×10^5 | 435 ± 221 nM |  |  |  |  |  |
| Cc1cc(C(=O)N[C@@H](CCC(=O)O)C(=O)NCCC(=O)NCCCO[C@H]2CC[C@@]3(C)C(=CC[C@H]4[C@@H]5CC[C@H]([C@H](C)CCCC(C)C)[C@@]5(C)CC[C@@H]43)C2)ccc1-c1c2cc(F)c(=O)cc-2oc2cc(O)c(F)cc12 [compound 9, (4S)-5-{[3-({3-[3β-Cholest-5-en-3-yloxy]propyl}amino)-3-oxopropyl]amino}-4-{[4-(2,7-difluoro-6-hydroxy-3-oxo-3H-xanthen-9-yl)-3-methylbenzoyl]amino}-5-oxopentanoic acid] | 1.68 ± 0.26 ×10^5 | 954 ± 285 nM |  |  |  |  |  | 192 to 194 °C |  |
| Cc1cc(C(=O)N[C@@H](CCC(=O)O)C(=O)NCCC(=O)NCCC(=O)N[C@H]2CC[C@@]3(C)C(=CC[C@H]4[C@@H]5CC[C@H]([C@H](C)CCCC(C)C)[C@@]5(C)CC[C@@H]43)C2)ccc1-c1c2cc(F)c(=O)cc-2oc2cc(O)c(F)cc12 [compound 10, (4S)-4-(4-(2,7-difluoro-6-hydroxy-3-oxo-3H-xanthen-9-yl)-3-methylbenzamido)-5-((3-((3-{[3β-cholest-5-en-3-yl]amino}-3-oxopropyl)amino)-3-oxopropyl)amino)-5-oxopentanoic acid] | 1.86 ± 0.39 ×10^5 | 786 ± 358 nM | 2.2 ± 0.30 ×10^5 | 639 ± 190 nM |  |  |  | 192 to 194 °C |  |
| Cc1cc(C(=O)N[C@@H](CCC(=O)O)C(=O)NCCC(=O)NCCC(=O)OC2CC[C@@]3(C)C(=CC[C@H]4[C@@H]5CC[C@H]([C@H](C)CCCC(C)C)[C@@]5(C)CC[C@@H]43)C2)ccc1-c1c2cc(F)c(=O)cc-2oc2cc(O)c(F)cc12 (stereo partly drawn) [compound 11, (4S)-4-(4-(2,7-difluoro-6-hydroxy-3-oxo-3H-xanthen-9-yl)-3-methylbenzamido)-5-((3-((3-{[3-cholester-3-yl]oxy}3-oxopropyl)amino)-3-oxopropyl)amino)-5-oxopentanoic acid] | NC^b (Not calculated due to low efficacy (Bmax<0.4×105)) |  | NC^b (Not calculated due to low efficacy (Bmax<0.4×105)) |  |  |  |  |  |  |
| Cc1cc(C(=O)N[C@@H](CCC(=O)O)C(=O)NCC(=O)NCCNC(=O)OC2CC[C@@]3(C)C(=CC[C@H]4[C@@H]5CC[C@H]([C@H](C)CCCC(C)C)[C@@]5(C)CC[C@@H]43)C2)ccc1-c1c2cc(F)c(=O)cc-2oc2cc(O)c(F)cc12 (stereo partly drawn) [compound 12, (4S)-4-(4-(2,7-difluoro-6-hydroxy-3-oxo-3H-xanthen-9-yl)-3-methylbenzamido)-5-(3-((3-((({[3-cholester-3-y]oxy}carbonyl)amino)ethyl)amino)-2-oxoethyl)amino)-5-oxopentanoic acid] | NC^b (Not calculated due to low efficacy (Bmax<0.4×105)) |  | NC^b (Not calculated due to low efficacy (Bmax<0.4×105)) |  |  |  |  |  | substantially lower cellular binding and cellular uptake compared with compound 4 |
